Measurements as given in patent US20260070945A1, “MACROCYCLIC IMMUNOMODULATORS” (Bristol-Myers Squibb Company, priority 2022, published 2026).
*1 amine or outer side, *2 acyl side, *3 side chain or, on linkers, in order; H or OH if unused. Where a SMILES comes first, the peptide text is derived from it. Bridges are numbered along the chain shown (N, C = ends). [ ]: non-standard residue; d: D form. The star is where a group is joined. ξ: configuration not given here. Phe(3-CF3) = N[C@@H](Cc1cccc(C(F)(F)F)c1)C(=O)O; Phe(4-COOH) = N[C@@H](Cc1ccc(C(=O)O)cc1)C(=O)O; Bip = N[C@@H](Cc1ccc(-c2ccccc2)cc1)C(=O)O; Phe(3-Me) = Cc1cccc(C[C@H](N)C(=O)O)c1; Cyclopropanecarbonyl = O=C(C1CC1)*; Val(3-OH) = CC(C)(O)[C@H](N)C(=O)O; X6 = O=C(Cc1ccc(CN[*:1])cc1)[*:2]; hArg = N=C(N)NCCCC[C@H](N)C(=O)O; Cha = N[C@@H](CC1CCCCC1)C(=O)O; Ile(3ξ) = CCC(C)[C@H](N)C(=O)O; Thr(3ξ) = CC(O)[C@H](N)C(=O)O; NMeS = CN[C@@H](CO)C(=O)O; hSer = N[C@@H](CCO)C(=O)O; Carboxymethyl = O=C(O)C*; NMeA = CN[C@@H](C)C(=O)O; Orn = NCCC[C@H](N)C(=O)O; Aun = NCCCCCCCCCCC(=O)O; Dab = NCC[C@H](N)C(=O)O; AEEA = NCCOCCOCC(=O)O

target: T1, PD-1/PD-L1 interaction (PE-labeled human PD-L1-Ig binding to Jurkat cell line over-expressing human PD-1) (Homo sapiens, UniProt Q15116); assay: Jurkat-PD-1 Cell Binding High-Content Screening Assay (CBA); details: Jurkat-hPD-1 cells, PE-labeled PD-L1-Ig 20 nM final; read-out: Jurkat HPD1 PDL1 IC50
T1 construct: expressed in transfected cells; host or cells: Jurkat
T1 sequence (Q15116 25-288): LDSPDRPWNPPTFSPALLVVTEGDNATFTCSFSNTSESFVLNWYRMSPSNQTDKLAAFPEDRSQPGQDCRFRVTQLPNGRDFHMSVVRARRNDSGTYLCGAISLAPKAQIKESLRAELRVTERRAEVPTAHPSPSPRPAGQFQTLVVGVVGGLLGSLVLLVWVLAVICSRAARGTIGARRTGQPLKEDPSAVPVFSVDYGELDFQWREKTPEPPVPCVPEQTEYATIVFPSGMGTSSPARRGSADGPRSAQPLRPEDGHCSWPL
Outline: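 Compound is added first to the PD-1-expressing Jurkat cells and held 2 h at 37 °C in serum-containing DMEM. The fluorescent PD-L1 fusion follows at 20 nM final for 1 h. Fixed, Hoechst-stained cells are then imaged for bound label.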

| Compound | IC50 |
| --- | --- |
| Cc1cccc(C[C@@H]2NC(=O)[C@H](CC(=O)O)NC(=O)[C@H](Cc3c[nH]cn3)NC(=O)[C@H](Cc3ccc(OCC(=O)O)cc3)NC(=O)CSC[C@@H](C(=O)NCCCCCCCCCCC(=O)O)NC(=O)[C@H](CO)NC(=O)[C@H](C(C)C)NC(=O)[C@H](CC3CCCCC3)NC(=O)[C@H](CCN)NC(=O)[C@@H](CC(C)C)NC(=O)[C@H](C)N(C)C(=O)[C@H](Cc3ccc(OCC(=O)O)cc3)NC(=O)[C@H](Cc3ccc(-c4ccccc4)cc3)NC(=O)[C@H](CC(C)C)NC2=O)c1 [Example 2252] ({CH2CO}-Y(Carboxymethyl)HD[Phe(3-Me)]L[Bip]Y(Carboxymethyl)[NMeA][dL][Dab][Cha]VSC[Aun]-OH; thioether N-14) | 0.127 µM |
| Cc1cccc(C[C@@H]2NC(=O)[C@H](CC(=O)O)NC(=O)[C@H](Cc3c[nH]cn3)NC(=O)[C@H](Cc3ccc(OCC(=O)O)cc3)NC(=O)CSC[C@@H](C(=O)NCCCCCCCCCCC(=O)O)NC(=O)[C@H](CCC(N)=O)NC(=O)[C@H](C(C)C)NC(=O)[C@H](CC3CCCCC3)NC(=O)[C@H](CCN)NC(=O)[C@@H](CC(C)C)NC(=O)[C@H](C)N(C)C(=O)[C@H](Cc3ccc(O)cc3)NC(=O)[C@H](Cc3ccc(-c4ccccc4)cc3)NC(=O)[C@H](CC(C)C)NC2=O)c1 [Example 2251] ({CH2CO}-Y(Carboxymethyl)HD[Phe(3-Me)]L[Bip]Y[NMeA][dL][Dab][Cha]VQC[Aun]-OH; thioether N-14) | 0.169 µM |
| Cc1cccc(C[C@@H]2NC(=O)[C@H](CC(=O)O)NC(=O)[C@H](Cc3ccc(OCC(=O)O)cc3)NC(=O)[C@H]([C@@H](C)O)NC(=O)CSC[C@@H](C(=O)N[C@@H](CCCN)C(=O)NCCOCCOCC(=O)NCCCCCCCCCCC(=O)O)NC(=O)[C@H]([C@@H](C)O)NC(=O)[C@H](C(C)C)NC(=O)[C@H](CC3CCCCC3)NC(=O)[C@H](CCN)NC(=O)[C@@H](CC(C)C)NC(=O)[C@H](C)N(C)C(=O)[C@H](Cc3ccc(OCC(=O)O)cc3)NC(=O)[C@H](Cc3ccc(-c4ccccc4)cc3)NC(=O)[C@H](Cc3ccc(OCC(=O)O)cc3)NC2=O)c1 [Example 1371] ({CH2CO}-TY(Carboxymethyl)D[Phe(3-Me)]Y(Carboxymethyl)[Bip]Y(Carboxymethyl)[NMeA][dL][Dab][Cha]VTC[Orn][AEEA][Aun]-OH; thioether N-14) | 0.0275 µM |

Continued, values first:

| IC50 | Compound |
| --- | --- |
| 0.0145 µM | Cc1cccc(C[C@@H]2NC(=O)[C@H](CC(=O)O)NC(=O)[C@H](Cc3ccc(OCC(=O)O)cc3)NC(=O)[C@H](C(C)O)NC(=O)CSC[C@@H](C(=O)N[C@@H](CCN)C(=O)NCCCCCCCCCCC(=O)O)NC(=O)[C@H](CCO)NC(=O)[C@H](C(C)C)NC(=O)[C@H](CC3CCCCC3)NC(=O)[C@H](CCN)NC(=O)[C@@H](CC(C)C)NC(=O)[C@H](C)N(C)C(=O)[C@H](Cc3ccc(OCC(=O)O)cc3)NC(=O)[C@H](Cc3ccc(-c4ccccc4)cc3)NC(=O)[C@H](Cc3ccc(C(=O)O)cc3)NC2=O)c1 (stereo partly drawn) [Example 2352] ({CH2CO}-[Thr(3ξ)]Y(Carboxymethyl)D[Phe(3-Me)][Phe(4-COOH)][Bip]Y(Carboxymethyl)[NMeA][dL][Dab][Cha]V[hSer]C[Dab][Aun]-OH; thioether N-14) |
| 0.0182 µM | CC(C)C[C@@H]1NC(=O)[C@H](Cc2c[nH]c3ccccc23)NC(=O)[C@H](CC(=O)O)NC(=O)[C@H](Cc2ccc(C(=O)O)cc2)NC(=O)[C@H](Cc2ccc(OCC(=O)O)cc2)NC(=O)CSC[C@@H](C(=O)N[C@@H](CCCCN)C(=O)NCc2ccc(CC(=O)NCCCCCCCCCCC(=O)O)cc2)NC(=O)[C@H](CO)NC(=O)[C@H](C(C)C)NC(=O)[C@H](CC2CCCCC2)NC(=O)[C@H](CCN)NC(=O)[C@@H](CC(C)C)NC(=O)[C@H](C)N(C)C(=O)[C@H](C(C)C)NC(=O)[C@H](Cc2ccc(-c3ccccc3)cc2)NC1=O [Example 1245] ({CH2CO}-Y(Carboxymethyl)[Phe(4-COOH)]DWL[Bip]V[NMeA][dL][Dab][Cha]VSCK[X6][Aun]-OH; thioether N-14) |
| 0.0196 µM | Cc1cccc(C[C@@H]2NC(=O)[C@H](CC(=O)O)NC(=O)[C@H](Cc3ccc(OCC(=O)O)cc3)NC(=O)[C@H](C(C)O)NC(=O)CSC[C@@H](C(=O)N[C@@H](CCN)C(=O)NCCOCCOCC(=O)NCCCCCCCCCCC(=O)O)NC(=O)[C@H](CC(=O)O)NC(=O)[C@H](C(C)C)NC(=O)[C@H](CC3CCCCC3)NC(=O)[C@H](CCN)NC(=O)[C@@H](CC(C)C)NC(=O)[C@H](C)N(C)C(=O)[C@H](Cc3ccc(OCC(=O)O)cc3)NC(=O)[C@H](Cc3ccc(-c4ccccc4)cc3)NC(=O)[C@H](Cc3ccc(C(=O)O)cc3)NC2=O)c1 (stereo partly drawn) [Example 2479] ({CH2CO}-[Thr(3ξ)]Y(Carboxymethyl)D[Phe(3-Me)][Phe(4-COOH)][Bip]Y(Carboxymethyl)[NMeA][dL][Dab][Cha]VDC[Dab][AEEA][Aun]-OH; thioether N-14) |
| 0.0192 µM | COc1ccc(C[C@@H]2NC(=O)CSC[C@@H](C(=O)N[C@@H](CCN)C(=O)NCCCCCCCCCCC(=O)O)NC(=O)[C@H](CO)NC(=O)[C@H](C(C)(C)O)NC(=O)[C@H](CC3CCCCC3)NC(=O)[C@H](CCN)NC(=O)[C@@H](CC(C)C)NC(=O)[C@H](C)N(C)C(=O)[C@H](Cc3ccc(OCC(=O)O)cc3)NC(=O)[C@H](Cc3ccc(-c4ccccc4)cc3)NC(=O)[C@H](Cc3ccc(OCC(=O)O)cc3)NC(=O)[C@H](Cc3cccc(C)c3)NC(=O)[C@H](CC(=O)O)NC(=O)[C@H](Cc3ccc(OCC(=O)O)cc3)NC2=O)cc1 [Example 1286] ({CH2CO}-Y(Me)Y(Carboxymethyl)D[Phe(3-Me)]Y(Carboxymethyl)[Bip]Y(Carboxymethyl)[NMeA][dL][Dab][Cha][Val(3-OH)]SC[Dab][Aun]-OH; thioether N-14) |
| 0.0141 µM | Cc1cccc(C[C@@H]2NC(=O)[C@H](CC(=O)O)NC(=O)[C@H](Cc3ccc(OCC(=O)O)cc3)NC(=O)[C@H](CCCCNC(=N)N)NC(=O)CSC[C@@H](C(=O)N[C@@H](CCN)C(=O)NCCCCCCCCCCC(=O)O)NC(=O)[C@H](C(C)O)NC(=O)[C@H](C(C)C)NC(=O)[C@H](CC3CCCCC3)NC(=O)[C@H](CCN)NC(=O)[C@@H](CC(C)C)NC(=O)[C@H](C)N(C)C(=O)[C@H](CCCCNC(=O)C3CC3)NC(=O)[C@H](Cc3ccc(-c4ccccc4)cc3)NC(=O)[C@H](Cc3ccc(O)cc3)NC2=O)c1 (stereo partly drawn) [Example 2399] ({CH2CO}-[hArg]Y(Carboxymethyl)D[Phe(3-Me)]Y[Bip]K(Cyclopropanecarbonyl)[NMeA][dL][Dab][Cha]V[Thr(3ξ)]C[Dab][Aun]-OH; thioether N-14) |
| 0.0211 µM | CCC(C)[C@@H]1NC(=O)[C@H](Cc2ccc(-c3ccccc3)cc2)NC(=O)[C@H](CC(C)C)NC(=O)[C@H](Cc2c[nH]c3ccccc23)NC(=O)[C@H](CC(=O)O)NC(=O)[C@H](Cc2ccc(C(=O)O)cc2)NC(=O)[C@H](Cc2ccc(OCC(=O)O)cc2)NC(=O)CSC[C@@H](C(=O)NCCOCCOCC(=O)NCCCCCCCCCCC(=O)O)NC(=O)[C@H](CCCNC(=N)N)NC(=O)[C@H](C(C)C)NC(=O)[C@H](CC2CCCCC2)NC(=O)[C@H](CCN)NC(=O)[C@@H](CC(C)C)NC(=O)[C@H](CO)N(C)C1=O (stereo partly drawn) [Example 2279] ({CH2CO}-Y(Carboxymethyl)[Phe(4-COOH)]DWL[Bip][Ile(3ξ)][NMeS][dL][Dab][Cha]VRC[AEEA][Aun]-OH; thioether N-14) |

same assay, conditions: PE-labeled PD-L1-Ig 20 nM final, Jurkat-hPD-1 cells; read-out: Jurkat HPD1 PDL1 IC50

| IC50 | Compound |
| --- | --- |
| 0.0022 µM | CC(C)C[C@H]1NC(=O)[C@H](C)N(C)C(=O)[C@H](Cc2ccc(C(=O)O)cc2)NC(=O)[C@H](Cc2ccc(-c3ccccc3)cc2)NC(=O)[C@H](Cc2ccc(C(=O)O)cc2)NC(=O)[C@H](Cc2cccc(C(F)(F)F)c2)NC(=O)[C@H](CC(=O)O)NC(=O)[C@H](Cc2ccc(C(=O)O)cc2)NC(=O)[C@H](C(C)O)NC(=O)CSC[C@@H](C(=O)N[C@@H](CCN)C(=O)NCCCCCCCCCCC(=O)O)NC(=O)[C@H](CO)NC(=O)[C@H](C(C)(C)O)NC(=O)[C@H](CC2CCCCC2)NC(=O)[C@H](CCN)NC1=O (stereo partly drawn) [Example 2567] ({CH2CO}-[Thr(3ξ)][Phe(4-COOH)]D[Phe(3-CF3)][Phe(4-COOH)][Bip][Phe(4-COOH)][NMeA][dL][Dab][Cha][Val(3-OH)]SC[Dab][Aun]-OH; thioether N-14) |
| 0.0086 µM | Cc1cccc(C[C@@H]2NC(=O)[C@H](CC(=O)O)NC(=O)[C@H](Cc3ccc(C(=O)O)cc3)NC(=O)[C@H](CCN)NC(=O)CSC[C@@H](C(=O)N[C@@H](CCN)C(=O)NCCCCCCCCCCC(=O)O)NC(=O)[C@H](Cc3cnc[nH]3)NC(=O)[C@H](C(C)(C)O)NC(=O)[C@H](CC3CCCCC3)NC(=O)[C@H](CCN)NC(=O)[C@@H](CC(C)C)NC(=O)[C@H](C)N(C)C(=O)[C@H](Cc3ccc(C(=O)O)cc3)NC(=O)[C@H](Cc3ccc(-c4ccccc4)cc3)NC(=O)[C@H](Cc3ccc(C(=O)O)cc3)NC2=O)c1 [Example 2554] ({CH2CO}-[Dab][Phe(4-COOH)]D[Phe(3-Me)][Phe(4-COOH)][Bip][Phe(4-COOH)][NMeA][dL][Dab][Cha][Val(3-OH)]HC[Dab][Aun]-OH; thioether N-14) |
| 0.0352 µM | CC(C)C[C@@H]1NC(=O)[C@H](Cc2c[nH]c3ccccc23)NC(=O)[C@H](CC(=O)O)NC(=O)[C@H](Cc2ccc(C(=O)O)cc2)NC(=O)[C@H](Cc2ccc(OCC(=O)O)cc2)NC(=O)CSC[C@@H](C(=O)NCCOCCOCC(=O)NCCCCCCCCCCC(=O)O)NC(=O)[C@H](CO)NC(=O)[C@H](C(C)O)NC(=O)[C@H](CC2CCCCC2)NC(=O)[C@H](CCN)NC(=O)[C@@H](CC(C)C)NC(=O)[C@H](C)N(C)C(=O)[C@H](C(C)C)NC(=O)[C@H](Cc2ccc(-c3ccccc3)cc2)NC1=O (stereo partly drawn) [Example 2433] ({CH2CO}-Y(Carboxymethyl)[Phe(4-COOH)]DWL[Bip]V[NMeA][dL][Dab][Cha][Thr(3ξ)]SC[AEEA][Aun]-OH; thioether N-14) |
